The text below walks through data of patent US9096593B2, “Compounds and methods for kinase modulation, and indications therefor” (Plexxikon Inc., priority 2009, dated 2015).

For one test, the target named is Fms kinase (Homo sapiens (Human), UniProt P07333). The experiment in a line: Fms kinase biochemical activity assay (AlphaScreen, biotin-(E4Y)10 phosphorylation). An outline of the steps: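 Recombinant human Fms phosphorylating 30 nM biotin-(E4Y)10 with 100 μM ATP (1 ng/well enzyme) in Hepes pH 7.5 buffer with Mg2+/Mn2+, 5% DMSO, 20 min at 30 °C. Phosphotyrosine detected by AlphaScreen streptavidin donor/PY20 acceptor beads; IC50 from signal versus compound concentration.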
For orientation: In Alpha technology, singlet oxygen from a donor bead excites a nearby acceptor bead.

Another test deals with c-Kit kinase (Homo sapiens (Human), UniProt P10721). As to the kind of experiment: c-Kit kinase biochemical activity assay (AlphaScreen, biotin-(E4Y)10 phosphorylation). On the procedure: In one assay the biochemical activity IC50 values are determined with respect to inhibition of c-Kit kinase activity, where inhibition of phosphorylation of a peptide substrate is measured as a function of compound concentration. Compounds to be tested are dissolved in DMSO to a concentration of 20 mM. These are diluted 30 μL into 120 μL of DMSO (4 mM) and 1 μL is added to an assay plate. These are then serially diluted […] (50 μL to 100 μL DMSO) for a total of 8 points. Plates are prepared such that each kinase reaction is 20 μL in 1× kinase buffer (25 mM HEPES, pH 7.5, 2 mM MgCl2, 2 mM MnCl2, 0.01% Tween-20, 1 mM DTT, 0.01% BSA), 5% DMSO and 100 μM ATP. Substrate is 30 nM biotin-(E4Y)10 (Millipore). C-kit kinase (obtained from Millipore (#14-559) or is prepared as described in U.S. Patent Application Publication Number 2009/0076046, the disclosure of which is hereby incorporated by reference as it relates to this assay) is at 0.75 ng per sample. After incubation of the kinase reaction for 1 hour at room temperature, 5 μL of donor beads (Streptavidin coated beads (Perkin Elmer Life Science) final concentration 10 μg/mL) in stop buffer (25 mM Hepes pH 7.5, 100 mM EDTA, 0.01% BSA) is added, the sample is mixed and incubated for 20 minutes at room temperature before adding 5 μL of acceptor beads (PY20 coated beads (Perkin Elmer Life Science) final concentration 10 μg/mL) in stop buffer. The samples are incubated for 60 minutes at room temperature and the signal per well is read on Envision reader. […] The signal vs. compound concentration is used to determine the IC50.

Setting [1] is: read-out: Biochemical activity (IC50 μM) Fms.
The mark [2] stands for this setting: 100 μM ATP, read-out: Biochemical (IC50 μM) Fms.

The structures appear in SMILES notation. Like-named read-outs stand apart in the source and are kept apart here.

Chain of c-Kit kinase (P10721 26-976): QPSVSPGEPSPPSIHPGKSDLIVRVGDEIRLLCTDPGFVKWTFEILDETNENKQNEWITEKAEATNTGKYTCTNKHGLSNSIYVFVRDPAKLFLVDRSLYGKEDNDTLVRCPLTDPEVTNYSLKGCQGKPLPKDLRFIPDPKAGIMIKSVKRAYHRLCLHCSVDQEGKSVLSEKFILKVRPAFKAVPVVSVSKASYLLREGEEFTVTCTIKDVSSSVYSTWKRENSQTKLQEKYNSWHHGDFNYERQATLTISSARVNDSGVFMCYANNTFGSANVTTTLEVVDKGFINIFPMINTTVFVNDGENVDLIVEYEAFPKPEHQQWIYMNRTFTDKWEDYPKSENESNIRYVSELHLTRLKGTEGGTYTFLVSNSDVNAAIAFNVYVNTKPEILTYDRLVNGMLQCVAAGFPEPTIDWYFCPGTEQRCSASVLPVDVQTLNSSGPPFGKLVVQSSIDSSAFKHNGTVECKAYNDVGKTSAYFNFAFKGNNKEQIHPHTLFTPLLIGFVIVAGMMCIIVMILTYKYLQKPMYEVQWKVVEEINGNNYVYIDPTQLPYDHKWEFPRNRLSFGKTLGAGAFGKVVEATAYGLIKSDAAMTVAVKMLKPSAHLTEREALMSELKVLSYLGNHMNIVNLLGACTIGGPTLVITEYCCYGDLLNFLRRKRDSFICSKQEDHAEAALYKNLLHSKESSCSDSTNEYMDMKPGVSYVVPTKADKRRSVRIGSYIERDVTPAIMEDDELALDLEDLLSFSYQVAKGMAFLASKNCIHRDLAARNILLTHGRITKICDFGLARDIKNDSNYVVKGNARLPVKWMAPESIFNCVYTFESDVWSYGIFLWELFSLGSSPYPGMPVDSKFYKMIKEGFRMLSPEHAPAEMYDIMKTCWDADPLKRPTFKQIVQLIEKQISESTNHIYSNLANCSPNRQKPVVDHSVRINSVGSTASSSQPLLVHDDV
Chain of Fms kinase (P07333 20-972): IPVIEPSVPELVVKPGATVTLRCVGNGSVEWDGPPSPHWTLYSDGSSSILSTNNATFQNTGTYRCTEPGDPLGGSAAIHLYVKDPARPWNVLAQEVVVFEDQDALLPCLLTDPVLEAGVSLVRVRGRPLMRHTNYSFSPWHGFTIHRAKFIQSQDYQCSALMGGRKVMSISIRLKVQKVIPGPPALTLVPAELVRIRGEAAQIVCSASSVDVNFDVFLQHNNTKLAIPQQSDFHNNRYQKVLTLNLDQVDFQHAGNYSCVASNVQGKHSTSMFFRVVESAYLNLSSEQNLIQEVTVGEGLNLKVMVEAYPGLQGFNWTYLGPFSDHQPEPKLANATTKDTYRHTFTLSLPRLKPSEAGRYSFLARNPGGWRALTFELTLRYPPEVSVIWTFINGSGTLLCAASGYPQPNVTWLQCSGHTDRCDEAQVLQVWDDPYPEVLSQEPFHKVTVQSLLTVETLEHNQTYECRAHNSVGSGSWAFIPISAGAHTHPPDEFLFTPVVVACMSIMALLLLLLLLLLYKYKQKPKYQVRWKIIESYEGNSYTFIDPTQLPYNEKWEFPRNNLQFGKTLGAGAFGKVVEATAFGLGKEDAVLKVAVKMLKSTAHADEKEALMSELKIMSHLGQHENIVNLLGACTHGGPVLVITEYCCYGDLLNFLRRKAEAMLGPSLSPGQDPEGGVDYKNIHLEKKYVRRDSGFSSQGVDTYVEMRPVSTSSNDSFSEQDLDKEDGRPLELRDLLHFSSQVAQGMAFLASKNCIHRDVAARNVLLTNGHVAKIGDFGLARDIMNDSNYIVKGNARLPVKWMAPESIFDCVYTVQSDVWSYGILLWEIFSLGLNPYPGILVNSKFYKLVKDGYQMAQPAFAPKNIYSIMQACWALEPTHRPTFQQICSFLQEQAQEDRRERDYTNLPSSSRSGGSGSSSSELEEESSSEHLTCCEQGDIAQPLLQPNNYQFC

Consider `COc1ccc(CNc2ncc(Cc3c[nH]c4ncc(C)cc34)cc2C)cn1` [Compound P-1554, (6-Methoxy-pyridin-3-ylmethyl)-[3-methyl-5-(5-methyl-1H-pyrrolo[2,3-b]pyridin-3-ylmethyl)-pyridin-2-yl]-amine], for which the “Biochemical activity selectivity (Kit IC50/Fms IC50)” value at Fms kinase is reported as under 20. The IC50 at Fms kinase (setting [1]) and at c-Kit kinase was under 0.1 µM throughout.
As to `COc1ccc(CNc2ncc(Cc3c[nH]c4ncc(C)cc34)cc2F)cn1` [Compound P-1562, [3-Fluoro-5-(5-methyl-1H-pyrrolo[2,3-b]pyridin-3-ylmethyl)-pyridin-2-yl]-(6-methoxy-pyridin-3-ylmethyl)-amine], the “Biochemical activity selectivity (Kit IC50/Fms IC50)” value on Fms kinase is listed as under 20. The half-inhibitory concentration (IC50) on Fms kinase (setting [1]) and against c-Kit kinase was under 0.1 µM throughout.
`COc1ccc(CNc2ccc(Cc3c[nH]c4ncc(F)cc34)c(F)n2)cn1` [Compound P-1622, [6-Fluoro-5-(5-fluoro-1H-pyrrolo[2,3-b]pyridin-3-ylmethyl)-pyridin-2-yl]-(6-methoxy-pyridin-3-ylmethyl)-amine]: the “Biochemical activity selectivity (Kit IC50/Fms IC50)” value at Fms kinase is on record as over 20. Besides, the IC50 (usually the concentration at which inhibition is half-maximal) on Fms kinase (setting [1]) is under 0.1 µM; against c-Kit kinase it was over 0.1 µM.
Take `CS(=O)(=O)Nc1cnc2[nH]cc(Cc3ccc(NCc4ccc(Cl)nc4)nc3F)c2c1` [Compound P-1679, N-(3-{6-[(6-Chloro-pyridin-3-ylmethyl)-amino]-2-fluoro-pyridin-3-ylmethyl}-1H-pyrrolo[2,3-b]pyridin-5-yl)-methanesulfonamide]: the “Biochemical activity selectivity (Kit IC50/Fms IC50)” value on Fms kinase is on record as over 20. Further, the IC50 on Fms kinase (setting [1]) is under 0.1 µM; against c-Kit kinase, over 0.1 µM.
Regarding `Fc1cncc(CNc2ccc(Cc3c[nH]c4ncc(Cl)cc34)c(F)n2)c1` [Compound P-2001, [5-(5-Chloro-1H-pyrrolo[2,3-b]pyridin-3-ylmethyl)-6-fluoro-pyridin-2-yl]-(5-fluoro-pyridin-3-ylmethyl)-amine], the “Biochemical activity selectivity (Kit IC50/Fms IC50)” value on Fms kinase was over 20. Moreover, the IC50 on Fms kinase (setting [1]) was under 0.1 µM; against c-Kit kinase, over 0.1 µM.
Take `Clc1cnc2[nH]cc(Cc3ccc(NCc4ccc(Cl)nc4)nc3)c2c1` [Compound P-2003]: the 50% inhibitory concentration (IC50) at Fms kinase (setting [2]), at Fms kinase (setting [1]) and on c-Kit kinase was under 0.1 µM each time. Further, the “Biochemical activity selectivity (Kit IC50/Fms IC50)” value at Fms kinase was under 20.
In the case of `Fc1ccc(CNc2ccc(Cc3c[nH]c4ncc(Cl)cc34)cn2)cn1` [Compound P-2004, [5-(5-chloro-1H-pyrrolo[2,3-b]pyridin-3-ylmethyl)-pyridin-2-yl]-(6-fluoro-pyridin-3-ylmethyl)-amine], the IC50 on Fms kinase (setting [2]), on Fms kinase (setting [1]) and at c-Kit kinase was under 0.1 µM throughout. The “Biochemical activity selectivity (Kit IC50/Fms IC50)” value on Fms kinase is under 20.
Take `Fc1ccc(CNc2ncc(Cc3c[nH]c4ncc(Cl)cc34)cn2)cc1F` [Compound P-2008, [5-(5-Chloro-1H-pyrrolo[2,3-b]pyridin-3-ylmethyl)-pyrimidin-2-yl]-(3,4-difluoro-benzyl)-amine]: the “Biochemical activity selectivity (Kit IC50/Fms IC50)” value on Fms kinase is under 20. The IC50 at Fms kinase (setting [1]) and at c-Kit kinase was under 0.1 µM in each case.
Consider `Cc1cccc(CNc2ncc(Cc3c[nH]c4ncc(Cl)cc34)cn2)c1` [Compound P-2013, [5-(5-Chloro-1H-pyrrolo[2,3-b]pyridin-3-ylmethyl)-pyrimidin-2-yl]-(3-methyl-benzyl)-amine], for which the “Biochemical activity selectivity (Kit IC50/Fms IC50)” value at Fms kinase is under 20. Moreover, the IC50 on Fms kinase (setting [1]) and against c-Kit kinase was under 0.1 µM each time.
For `Cc1cnc2[nH]cc(Cc3ccc(NCc4ccc(C(F)(F)F)nc4)nc3)c2c1` [Compound P-2019, [5-(5-Methyl-1H-pyrrolo[2,3-b]pyridin-3-ylmethyl)-pyridin-2-yl]-(6-trifluoromethyl-pyridin-3-ylmethyl)-amine], the IC50 at Fms kinase (setting [2]), on Fms kinase (setting [1]) and at c-Kit kinase was under 0.1 µM in each case. The “Biochemical activity selectivity (Kit IC50/Fms IC50)” value on Fms kinase is reported as under 20.
With `COc1cnc2[nH]cc(Cc3ccc(NCc4cncc(F)c4)nc3F)c2c1` [Compound P-2028, [6-Fluoro-5-(5-methoxy-1H-pyrrolo[2,3-b]pyridin-3-ylmethyl)-pyridin-2-yl]-(5-fluoro-pyridin-3-ylmethyl)-amine], the “Biochemical activity selectivity (Kit IC50/Fms IC50)” value at Fms kinase was over 20. The IC50 at Fms kinase (setting [1]) was under 0.1 µM; against c-Kit kinase it was over 0.1 µM.
As for `COc1ccc(CNc2ccc(Cc3c[nH]c4ncc(C)cc34)c(F)n2)cn1` [Compound P-2029, [6-Fluoro-5-(5-methyl-1H-pyrrolo[2,3-b]pyridin-3-ylmethyl)-pyridin-2-yl]-(6-methoxy-pyridin-3-ylmethyl)-amine], the results for the IC50 on Fms kinase (setting [2]), at Fms kinase (setting [1]) and at c-Kit kinase were under 0.1 µM, under 0.1 µM and over 0.1 µM, respectively. Further, the “Biochemical activity selectivity (Kit IC50/Fms IC50)” value at Fms kinase is recorded as over 20.
Take `COc1cnc2[nH]cc(Cc3ccc(NCc4ccc(OC)nc4)nc3F)c2c1` [Compound P-2030, [6-Fluoro-5-(5-methoxy-1H-pyrrolo[2,3-b]pyridin-3-ylmethyl)-pyridin-2-yl]-(6-methoxy-pyridin-3-ylmethyl)-amine]: the results for the IC50 at Fms kinase (setting [2]), at Fms kinase (setting [1]) and on c-Kit kinase were under 0.1 µM, under 0.1 µM and over 0.1 µM, respectively. Moreover, the “Biochemical activity selectivity (Kit IC50/Fms IC50)” value on Fms kinase is on record as under 20.
With `Cc1cnc2[nH]cc(Cc3ccc(NCc4ccc(C(F)(F)F)nc4)nc3F)c2c1` [Compound P-2031, [6-Fluoro-5-(5-methyl-1H-pyrrolo[2,3-b]pyridin-3-ylmethyl)-pyridin-2-yl]-(6-trifluoromethyl-pyridin-3-ylmethyl)-amine], the IC50 at Fms kinase (setting [2]) is under 0.1 µM; on Fms kinase (setting [1]) it was under 0.1 µM; on c-Kit kinase it was over 0.1 µM. Further, at Fms kinase, the “Biochemical activity selectivity (Kit IC50/Fms IC50)” value is on record as under 20.
Consider `COc1cnc2[nH]cc(Cc3ccc(NCc4ccc(Cl)cc4)nc3F)c2c1` [Compound P-2032, (4-Chloro-benzyl)-[6-fluoro-5-(5-methoxy-1H-pyrrolo[2,3-b]pyridin-3-ylmethyl)-pyridin-2-yl]-amine], for which the IC50 at Fms kinase (setting [2]), at Fms kinase (setting [1]) and against c-Kit kinase was under 0.1 µM each time. Moreover, the “Biochemical activity selectivity (Kit IC50/Fms IC50)” value on Fms kinase is on record as under 20.
On to `COc1cnc2[nH]cc(Cc3ccc(NCc4ccccc4Cl)nc3F)c2c1` [Compound P-2034, (2-chloro-benzyl)-[6-fluoro-5-(5-methoxy-1H-pyrrolo[2,3-b]pyridin-3-ylmethyl)-pyridin-2-yl]-amine], for which, at Fms kinase (setting [2]), the IC50 is under 0.1 µM.
With `COc1ccnc2[nH]cc(Cc3ccc(NCc4ccc(Cl)cc4)nc3F)c12` [Compound P-2037, (4-Chloro-benzyl)-[6-fluoro-5-(4-methoxy-1H-pyrrolo[2,3-b]pyridin-3-ylmethyl)-pyridin-2-yl]-amine], the half-inhibitory concentration (IC50) on Fms kinase (setting [2]) was under 0.1 µM; on Fms kinase (setting [1]), under 0.1 µM; against c-Kit kinase, over 0.1 µM. Further, the “Biochemical activity selectivity (Kit IC50/Fms IC50)” value at Fms kinase is on record as under 20.
`COc1ccc(CNc2ncc(Cc3c[nH]c4ncc(Cl)cc34)cn2)cn1` [Compound P-2038, [5-(5-Chloro-1H-pyrrolo[2,3-b]pyridin-3-ylmethyl)-pyrimidin-2-yl]-(6-methoxy-pyridin-3-ylmethyl)-amine]: the IC50 was under 0.1 µM at Fms kinase (setting [2]), under 0.1 µM at Fms kinase (setting [1]) and over 0.1 µM at c-Kit kinase. Also, the “Biochemical activity selectivity (Kit IC50/Fms IC50)” value at Fms kinase is recorded as under 20.
On to `COc1cnc2[nH]cc(Cc3ccc(NCc4cccnc4OC)nc3F)c2c1` [Compound P-2043, [6-Fluoro-5-(5-methoxy-1H-pyrrolo[2,3-b]pyridin-3-ylmethyl)-pyridin-2-yl]-(2-methoxy-pyridin-3-ylmethyl)-amine], for which the “Biochemical activity selectivity (Kit IC50/Fms IC50)” value at Fms kinase is over 20.
As to `Fc1nc(NCc2ccc(Cl)cn2)ccc1Cc1c[nH]c2ncccc12` [Compound P-2044, (5-Chloro-pyridin-2-ylmethyl)-[6-fluoro-5-(1H-pyrrolo[2,3-b]pyridin-3-ylmethyl)-pyridin-2-yl]-amine], at Fms kinase (setting [2]), the IC50 was under 0.1 µM.
On to `COc1ncccc1CNc1ccc(Cc2c[nH]c3ncccc23)c(F)n1` [Compound P-2045, [6-Fluoro-5-(1H-pyrrolo[2,3-b]pyridin-3-ylmethyl)-pyridin-2-yl]-(2-methoxy-pyridin-3-ylmethyl)-amine], for which, on Fms kinase, the “Biochemical activity selectivity (Kit IC50/Fms IC50)” value is listed as over 20. Also, the IC50 is under 0.1 µM at Fms kinase (setting [1]) and over 0.1 µM against c-Kit kinase.
Regarding `COc1ncccc1CNc1ccc(Cc2c[nH]c3ncc(C)cc23)c(F)n1` [Compound P-2052, [6-Fluoro-5-(5-methyl-1H-pyrrolo[2,3-b]pyridin-3-ylmethyl)-pyridin-2-yl]-(2-methoxy-pyridin-3-ylmethyl)-amine], the “Biochemical activity selectivity (Kit IC50/Fms IC50)” value at Fms kinase was over 20. Moreover, the IC50 is under 0.1 µM on Fms kinase (setting [1]) and over 0.1 µM against c-Kit kinase.
